Experimental data: publication PMC3720542, “Population pharmacokinetics of mefloquine, piperaquine and artemether-lumefantrine in Cambodian and Tanzanian malaria patients” (Malaria Journal, 2013)
Values after ≈ are worked out from the molar mass of the structure shown. Values joined by “and” are separate entries in the source; they are usually repeats but may differ in a detail not shown here. Identical values can stand only once. Like-named read-outs stand apart in the source and are kept apart here. One block for each compound: values may come before it.

Key:
malaria [1] = tested on: malaria; parameters: method as in PMID 10579474; conditions: cited from earlier work
[2] = cited from earlier work
clinical = conditions: human, in vivo
Experimental: The second study was conducted during October 2007 to February 2008 at the Phnom Dék Health Centre, Rovieng district, Preah Vihear province, Cambodia. Entry criteria and study procedures were identical as in the Tanzanian study with minor adaptations described below. […] Pregnant or lactating women were excluded. Three doses of AS (Arsumax®, Sanofi-Aventis, France) and MQ (Eloquine®, Medochemie Ltd, Cyprus) were given according to body weight on three consecutive days (see Table 1). Patients were seen by the clinical officer on days 1, 2, 3, 7, 14, 21, 28, 35 and 42. Sampling for the pharmacokinetic study was done at pre-dose and approximately 1 h after first dose intake on day 0, and on days 1, 2, 7 and 14 at pre-defined random times after drug intake.
Samples of 2 ml of venous blood were collected on an EDTA Vacutainer and kept on ice for no longer than 6 h after withdrawal and then aliquoted into whole blood, plasma and pellet and immediately stored in liquid nitrogen or a –80°C freezer. […] The method was validated according to FDA recommendations, including assessment of extraction yield, matrix effect variability, overall process efficiency, standard addition experiments as well as anti-malarials short- and long-term stability in plasma. […] The laboratory is part of the quality control system of the World-Wide Antimalarial Resistance Network (WWARN).
The pharmacokinetic analysis for each drug taken separately was performed using the NONMEM computer program Version 6 (NM-TRAN version II). It uses mixed (fixed and random) effects regression to estimate population means and variances of the pharmacokinetic parameters and to identify factors that influence them.
One-, two- and three-compartment pharmacokinetic models with first-order absorption, with and without absorption lag times, were compared. Additional one or two-compartments were used for anti-malarials presenting metabolite concentrations (AM and LF). The final parameters estimated were systemic clearance (CL/F), inter-compartmental clearance (Q/F), central volume of distribution (VC/F), peripheral volume of distribution (VP/F) and absorption rate constant (ka). Since no intravenous drug concentration data were available, these parameters represent apparent values. Where available, metabolite data were included into the model and metabolism rate constant from drug compartment to metabolite compartment (k23) and metabolite clearance (CLmet) were also estimated. Owing to identifiability problems, the volume of distribution of the metabolites (VM) DLF and DHA were assumed to equal LF and AM VC, respectively. […] The observed baseline residual plasma concentrations were fitted by estimating a factor (F0) that provided an estimation of the residual doses from previous treatment.
Exponential errors following a log-normal distribution were assumed for the description of inter-patient variability of the pharmacokinetic parameters and were of the form: θi=θ×e^ηj where θi is the individual pharmacokinetic parameter value in the j^th individual, θ is the population parameter estimate, and ηj is the random effect value, which is independently and normally distributed with a mean of 0 and variance ω^2. Proportional and combined proportional-and-additive error models were compared to describe intra-patient (residual) variability for the mother compound, and if available for its metabolite using Cpij(1 + ϵ1ij) + ϵ2ij or Cmij(1 + ϵ3ij) + ϵ4ij, where Cpij are the corresponding predicted i^th drug plasma concentration and Cmij are the predicted metabolite concentration for the j^th individual, and ϵ1ij, ϵ2ij, ϵ3ij, ϵ4ij, are independent normally distributed residual error terms with a mean of zero and a variance of σ^2_1, σ^2_2, σ^2_3, σ^2_4.
The covariate analysis was performed using a stepwise insertion/deletion approach. […]

[3] = Population pharmacokinetic analysis (NONMEM) of artemether-lumefantrine and metabolites in Tanzanian malaria patients (Kibaoni); format: in vivo, human
Experimental: Three studies have been conducted, one in Tanzania and two in Cambodia. The study profiles are described in Figure 1. The first study was performed during March to May 2008 at the Kibaoni Health Centre, Kilombero district, Morogoro region, Tanzania. […] Six AM-LF (Coartem®, Novartis Pharma, Switzerland) doses were administered at time 0, 8, […] according to body weight (see Table 1); patients were either admitted for three days or asked to come back to the health facility for each drug administration. Mothers of breastfed patients were encouraged to feed their children and patients admitted were provided with food. Patients who reported that they have not eaten within two hours to prior dose intake were instructed to eat as soon as possible. Patients were seen by the clinical officer on days 0, 1, 2, 3, 7, 14, 28, and 42. A blood sample for pharmacokinetic measurement was taken at baseline (pre-dose on day 0) and on days 1, 2, and 7 at pre-defined random times after the last dosing. At each visit, a filter paper sample and a thin and thick smear were taken, in addition to axillary temperature, respiratory rate and haemoglobin measurements (only on days 0, 28 and 42) as well as evaluation of symptoms (e.g. headache, vomiting, and diarrhea). The exact dose and time of last drug intake, body weight, height, age, sex, food intake and concomitant medications were carefully recorded. If patients suffered from concomitant illnesses they were provided with additional treatment (paracetamol, mebendazole, metronidazole, cloxacillin, amoxicillin). Samples of 2 ml of venous blood were collected on an EDTA Vacutainer and kept on ice for no longer than 6 h after withdrawal and then aliquoted into whole blood, plasma and pellet and immediately stored in liquid nitrogen or a -80°C freezer. […] The laboratory is part of the quality control system of the World-Wide Antimalarial Resistance Network (WWARN). The pharmacokinetic analysis for each drug taken separately was performed using the NONMEM computer program Version 6 (NM-TRAN version II). It uses mixed (fixed and random) effects regression to estimate population means and variances of the pharmacokinetic parameters and to identify factors that influence them. One-, two- and three-compartment pharmacokinetic models with first-order absorption, with and without absorption lag times, were compared. Additional one or two-compartments were used for anti-malarials presenting metabolite concentrations (AM and LF). The final parameters estimated were systemic clearance (CL/F), inter-compartmental clearance (Q/F), central volume of distribution (VC/F), peripheral volume of distribution (VP/F) and absorption rate constant (ka). Since no intravenous drug concentration data were available, these parameters represent apparent values. Where available, metabolite data were included into the model and metabolism rate constant from drug compartment to metabolite compartment (k23) and metabolite clearance (CLmet) were also estimated. Owing to identifiability problems, the volume of distribution of the metabolites (VM) DLF and DHA were assumed to equal LF and AM VC, respectively. […] The observed baseline residual plasma concentrations were fitted by estimating a factor (F0) that provided an estimation of the residual doses from previous treatment. […] Proportional and combined proportional-and-additive error models were compared to describe intra-patient (residual) variability for the mother compound, and if available for its metabolite using Cpij(1 + ε1ij) + ε2ij or Cmij(1 + ε3ij) + ε4ij, where Cpij are the corresponding predicted i^th drug plasma concentration and Cmij are the predicted metabolite concentration for the j^th individual, and ε1ij, ε2ij, ε3ij, ε4ij, are independent normally distributed residual error terms with a mean of zero and a variance of σ^2_1, σ^2_2, σ^2_3, σ^2_4. The covariate analysis was performed using a stepwise insertion/deletion approach. […]

malaria [4] = tested on: malaria; parameters: method as in earlier work; conditions: listed as LF, cited from earlier work
[5] = patients, median age 9.3 (4–15) years, n 74, sampling 28 days
[6] = patients, median age 14.8 (8–61) years, n 128, sampling 28 days
[7] = patients, median age 19 (2–55) years, n 50, sampling 63 days
[8] = prophylaxis, mean age 26 (18–55) years, n 1,111, sampling 26 weeks
[9] = bootstrap evaluation, 200 replicates
[10] = patients, age 7.7 ± 1.4 years, n 13, sampling 28 days
[11] = patients, median age 4.0 (1–10) years, n 50, sampling 72 h
[12] = patients, median age 20 (5–66) years, n 309
[13] = patients, median age 22 (14–60) years, n 217
[14] = patients, median age 23 (13–59) years, n 102
[15] = pregnant women, median age 24 (15–42) years, n 103, sampling 336 h

CL (clearance), population estimate (clinical): 0.10 × BW^0.75 L/h/kg
CL, bootstrap mean of 200 (clinical): 0.10 × BW^0.75 L/h/kg
F0 (residual amount from the previous treatment), population estimate (clinical): 33.1 mg
F0, bootstrap mean of 200 (clinical): 31.0 mg
IIV (inter-individual variability) of CL (clinical): 12%
IIV (inter-individual variability) of F0 (clinical): 175%
IIV (inter-individual variability) of VC (clinical): 19%
VC (central volume of distribution), population estimate (clinical): 8.93 × BW L/kg
VC, bootstrap mean of 200 (clinical): 9.01 × BW L/kg
Vd (clinical): 625 L
clearance (clinical): 40 mL/min
inter-individual variability in concentration exposure (clinical): ~12%
ka (first-order absorption rate constant), population estimate (clinical): 0.15 h⁻¹
ka, bootstrap mean of 200 (clinical): 0.15 h⁻¹
residual dose (F0) as percentage of an initial dose (clinical): 6.7–26.7%
σC, bootstrap mean of 200 (clinical): 43%
σC, residual error for the central compartment, population estimate (clinical): 43%
SMILES: OC(c1cc(C(F)(F)F)nc2c(C(F)(F)F)cccc12)C1CCCCN1 (centres unmarked) [Mefloquine, mefloquine]
minimal inhibitory concentration, MIC (drug plasma concentration) (malaria [1]): 0.5 µg/mL (≈ 1.32 µM)
CL, population estimate for a person of 70 kg [2, 5]: 3.71 L/h
VSS, population estimate for a person of 70 kg [2, 5]: 1,089.2 L
CL, population estimate for a person of 70 kg [2, 6]: 1.4 L/h
VSS, population estimate for a person of 70 kg [2, 6]: 574.7 L
CL, population estimate for a person of 70 kg [2, 7]: 2.1 L/h
VSS, population estimate for a person of 70 kg [2, 7]: 767.62 L
CL, population estimate for a person of 70 kg [2, 8]: 1.75 L/h
VSS, population estimate for a person of 70 kg [2, 8]: 863 L

patients with a concentration below the cut-off value of 175 ng/ml ([3]; Tanzanian sample of this study, day 7): 35%
F0, bootstrap mean of 200 [3, 9]: 2.45 mg
k23, bootstrap mean of 200 [3, 9]: 0.00037 h⁻¹
ka, bootstrap mean of 200 [3, 9]: 0.48 h⁻¹
θBWCL, bootstrap mean of 200 [3, 9]: 0.51
θBWVC, bootstrap mean of 200 [3, 9]: 0.34
σC (CV%), bootstrap mean of 200 [3, 9]: 61%
IIV (inter-individual variability) of CL ([3]; final model): 38%
IIV (inter-individual variability) of F0 ([3]; final model): 103%
IIV (inter-individual variability) of VC ([3]; final model): 33%
IIV (inter-individual variability) of k23 ([3]; final model): 38%
ka (first-order absorption rate constant), population estimate ([3]; final model): 0.54 h⁻¹
θBWVC, exponent of allometric power function of body weight on VC, population estimate ([3]; final model): 0.35
F0 (residual amount from the previous treatment), population estimate ([3]; final model, baseline): 2.53 mg
σC (CV%), residual error for the central compartment, population estimate ([3]; final model, intra-patient variability): 60%
k23 (metabolism rate constant), population estimate ([3]; final model, parent to metabolite (AM to DHA, LF to DLF)): 0.00037 h⁻¹
residual dose (F0) as percentage of the recommended first dose ([3]; first dose 120–480 mg): 0.3–1.3%
clearance ([3]; human, plasma, oral, present study, Tanzanian patients, sampling 7 days): 128 mL/min
Vd ([3]; human, plasma, oral, present study, Tanzanian patients, sampling 7 days, read-out: VSS (steady-state volume of distribution), population estimate for a person of 70 kg): 265 L
SMILES: CCCCN(CCCC)CC(O)c1cc(Cl)cc2c1-c1ccc(Cl)cc1/C2=C/c1ccc(Cl)cc1 (centres unmarked) [Lumefantrine, lumefantrine]
CL, population estimate for a person of 70 kg [2, 10]: 7.29 L/h
VSS, population estimate for a person of 70 kg [2, 10]: 506 L
CL, population estimate for a person of 70 kg [2, 11]: 5.4 L/h
VSS, population estimate for a person of 70 kg [2, 11]: 623 L
CL, population estimate for a person of 70 kg [2, 12]: 7.6 L/h
VSS, population estimate for a person of 70 kg [2, 12]: 361 L
CL, population estimate for a person of 70 kg [2, 13]: 21 L/h
VSS, population estimate for a person of 70 kg [2, 13]: 301 L
CL, population estimate for a person of 70 kg [2, 14]: 7 L/h
VSS, population estimate for a person of 70 kg [2, 14]: 298 L
CL, population estimate for a person of 70 kg [2, 15]: 8.7 L/h
VSS, population estimate for a person of 70 kg [2, 15]: 257 L
efficacy rates at 42 days for a day 7 concentration cut-off of 50 ng/ml (malaria [4]; high transmission areas): 80% and 95%
efficacy rates at 42 days for a day 7 concentration cut-off of 125 ng/ml (malaria [4]; low transmission areas): 84% and 96%
